The text below walks through data of patent publication US9097702B2, “Pathologically relevant tumor microenvironments for high-throughput drug screening” (Cornell University, priority 2008, dated 2015).

Assay [1] concerns MDA-MB231 breast cancer cells. Description: MDA-MB231 viability in conventional 2-D culture. Format: cell-based, human. Here is the method:
For the drug testing studies, different doses of two frequently utilized chemotherapeutic drugs were first evaluated with regard to their ability to reduce breast cancer cell viability in conventional 2-D culture.
(§1) Consequently, all subsequent drug testing studies were performed with doxorubicin.

Assay [2] has as its system MDA-MB231 breast cancer cells. Description: Doxorubicin responsiveness in 3-D cultures within RGD-modified alginate gels versus 2-D monolayer. Particulars: 3-D cultures within RGD-modified alginate gels vs 2-D monolayer (FIG. 5C). It counts as cell-based, human. As to the method: To examine tumor malignancy and efficacy of anti-cancer drugs in response to enhanced mechanical stiffness, MDA-MB231 were incorporated in 3-D RGD-modified alginate cultures and were evaluated for proliferation, secretion of a molecular marker of enhanced malignancy (i.e., interleukin-8 (IL-8)), and drug responsiveness.
as §1

For `COc1cccc2c1C(=O)c1c(O)c3c(c(O)c1C2=O)C[C@@](O)(C(=O)CO)C[C@@H]3O[C@H]1C[C@H](N)[C@H](O)[C@H](C)O1` [doxorubicin], in assay [1] (0.5 μM, 2-D culture (FIG. 5B, right panel)), the “number of viable tumor cells in 2-D culture” value is reported as “efficiently reduced the number of viable tumor cells”. Also, the “efficacy of doxorubicin treatment in 3-D relative to 2-D conditions” value in assay [2] is reported as 3-D micro-environmental conditions dramatically-reduce the efficacy of doxorubicin treatment relative to 2-D conditions.
Turning to `N.N.[Cl][Pt][Cl]` [cisplatin], the “MDA-MB231 viability in 2-D culture” value in assay [1] (high doses, 2-D culture (FIG. 5B, left panel)) was “did not alter MDA-MB231 viability”.
